Assays:
Staphylococcus aureus = experiment: Zones of inhibition around 3D-printed coupons on S. aureus plated on Tryptic soy agar (Example 1); format: cell-based; conditions: 3D-printed PLA coupon (25 mm diameter) comprising 1% tobramycin; shiny side down; TSA; 72 h at 37° C.
Protocol: The 1% tobramycin/PLA filament was supplied to the extrusion nozzle of a STRATASYS® MOJO® FDM® 3D printer (STRATASYS and MOJO are registered trademarks of Stratasys Inc., Eden Prairie, Minn., USA) to print replicate test coupons with an extrusion temperature of 205° C. […] Control coupons having the same physical dimensions and appearance as the test coupons, were printed with the STRATASYS® MOJO® FDM® 3D printer by feeding the control PLA filament through the extrusion nozzle at an extrusion temperature of 205° C.
Aliquots of a culture of Staphylococcus aureus grown in Tryptic soy broth (TSB) were plated onto the surface of Tryptic soy agar (TSA) contained within Petri plates. Two test coupons were placed onto the plated S. aureus culture in a Petri plate with one shiny side down and one matte side down. Two control coupons were placed onto the plated S. aureus culture in a Petri plate with one shiny side down and one matte side down. Triplicate plates were prepared with test coupon and with control coupons. The Petri plates were incubated for 72 h at 37° C. after which, the plates were examined for the occurrence of zones of inhibition around the coupons. No inhibition of the growth of S. aureus in the Petri plates receiving the control coupons. […]

S. aureus = experiment: Elution of antibiotics from 3D-printed coupons assessed by inhibition of growth of S. aureus on Meuller Hinton agar (Examples 3 and 4); format: cell-based, Staphylococcus aureus; conditions: about 72 hrs, 35-37° C., 25 = coupon diameter = no inhibition; for zone of inhibition, articles comprising PLA, antibiotic concentration 1%: 1% w/w antibiotic in PLA coupon; for zone of inhibition, articles comprising PLA, antibiotic concentration 2%: 2% w/w antibiotic in PLA coupon; for zone of inhibition, articles comprising PLA, antibiotic concentration 5%: 5% w/w antibiotic in PLA coupon; for zone of inhibition, articles comprising PCL polymer, antibiotic concentration 1%: 1% w/w antibiotic in PCL coupon; for zone of inhibition, articles comprising PCL polymer, antibiotic concentration 2%: 2% w/w antibiotic in PCL coupon; for zone of inhibition, articles comprising PCL polymer, antibiotic concentration 5%: 5% w/w antibiotic in PCL coupon
Protocol: Control coupons having the same physical dimensions and appearance as the test coupons, were printed with the […]® MOJO® printer by feeding the control filaments through the extrusion nozzle. The 2% and 5% tobramycin/PLA test coupons were printed with an extrusion temperature of 170° C., while the PLA control coupons and the 1% tobramycin/PLA test coupons were printed with an extrusion temperature of 205° C. The N12 control coupons, the 1%, 2%, and 5% gentamicin/N12 coupons, and the 1%, 2%, and 5% vancomycin/N12 coupons were printed at an extrusion temperature of 195° C. The remaining control coupons and test coupons were printed with an extrusion temperature of 170° C. The elution of antibiotics from the test coupons produced in Example 2 was assessed by the inhibition of the growth of S. aureus on the surfaces of Meuller Hinton agar contained within Petri dishes onto which test coupons placed. S. aureus cultures were grown on TSA amended with 5% sheep blood. A sufficient amount of S. aureus culture was transferred from the TSA culture plates to a 0.85% sterile saline solution to provide a uniform suspension that fell within a 0.5-2.0 McFarland turbidity standard. Aliquots of the S. aureus culture were plated onto Meuller Hinton agar in Petri dishes after which, two test coupons/dish (or alternatively, control coupons) were placed on the agar; one with its shiny side up and the other with its matte side up. The Meuller Hinton agar-containing Petri dishes were then incubated for about 72 hrs at temperatures in the range of about 35° C. to about 37° C. The zones of inhibition around each coupon were then measured and recorded (in mm) A clear zone around a test coupon indicates the inhibition of growth of S. aureus. […] The data shown in Tables 10, 11, and 12 confirm that all three antibiotics tested, i.e., tobramycin, gentamicin, and vancomycin, were eluted from articles printed with extruded antibiotic-containing polymers as evidenced by zones of inhibition of S. aureus cultures by articles comprising PLA polymer (Table 10), inhibition of S. aureus cultures by articles comprising PCL polymer (Table 11), and inhibition of S. aureus cultures by articles comprising HPDE polymer (Table 12). […] The control coupons for this study were taken from the batch of control coupons produced in Example 1. […] The data shown in Table 14 confirm that the three antibiotics were eluted from articles printed with extruded polymers comprising the three antibiotics.

| Compound | zones of inhibition in the growth of S. aureus around the shiny surfaces (Staphylococcus aureus) [mm] | zone of inhibition, articles comprising HDPE polymer, antibiotic concentration 1% (S. aureus; 1% w/w antibiotic in HDPE coupon) [mm] | zone of inhibition, articles comprising PLA, antibiotic concentration 1% (S. aureus) [mm] | zone of inhibition, articles comprising HDPE polymer, antibiotic concentration 2% (S. aureus; 2% w/w antibiotic in HDPE coupon) [mm] | zone of inhibition, articles comprising PLA, antibiotic concentration 2% (S. aureus) [mm] | zone of inhibition, articles comprising HDPE polymer, antibiotic concentration 5% (S. aureus; 5% w/w antibiotic in HDPE coupon) [mm] | zone of inhibition, articles comprising PLA, antibiotic concentration 5% (S. aureus) [mm] | zone of inhibition, articles comprising PCL polymer, antibiotic concentration 1% (S. aureus) [mm] | zone of inhibition, articles comprising PCL polymer, antibiotic concentration 2% (S. aureus) [mm] | zone of inhibition, articles comprising PCL polymer, antibiotic concentration 5% (S. aureus) [mm] |
| --- | --- | --- | --- | --- | --- | --- | --- | --- | --- | --- |
| NC[C@H]1O[C@H](O[C@H]2[C@H](O)[C@@H](O[C@H]3O[C@H](CO)[C@@H](O)[C@H](N)[C@H]3O)[C@H](N)C[C@@H]2N)[C@H](N)C[C@@H]1O [Tobramycin, tobramycin] | 37.7 | 27.0 | 37.7 | 28.5 | 27.5 | 37.5 | 28 | – | – | – |
| CN[C@H](CC(C)C)C(=O)N[C@H]1C(=O)N[C@@H](CC(N)=O)C(=O)N[C@H]2C(=O)N[C@H]3C(=O)N[C@H](C(=O)N[C@H](C(=O)O)c4cc(O)cc(O)c4-c4cc3ccc4O)[C@H](O)c3ccc(c(Cl)c3)Oc3cc2cc(c3O[C@@H]2O[C@H](CO)[C@@H](O)[C@H](O)[C@H]2O[C@H]2C[C@](C)(N)[C@H](O)[C@H](C)O2)Oc2ccc(cc2Cl)[C@H]1O [Vancomycin, vancomycin] | – | – | – | – | – | – | – | 28.5 | 25 | 28.5 |
| gentamicin | – | – | 34.0 | – | 26.5 | – | 37.5 | 32.0 | 38.5 | 41.0 |

From patent US20150290280A1, “ANTIMICROBIAL ARTICLES PRODUCED BY ADDITIVE MANUFACTURING” (ORTHOPAEDIC INNOVATION CENTER INC., priority 2012, published 2015)
